Measured values as given in the NIST ThermoML archive (doi:10.1021/acs.jced.5b00724).
Values joined by “and” are separate entries in the source; they are usually repeats but may differ in a detail not shown here. Equal values may be shown once. Numbers after ± are expanded uncertainties.

Assays:
[1] = Liquid; for mass density: Vibrating tube method
[2] = refractive index (Na D-line) (dimensionless); settings: 298.15 K; 101.33 kPa; Liquid; Standard Abbe refractometry
[3] = Boiling temperature at pressure P; settings: Liquid, Ebulliometric method (Recirculating still)

CC1CCC(=O)O1 (stereo not given) [γ-valerolactone]
[1]
Settings	mass density	vapor or sublimation pressure [kPa]
293.15 K, 186 kPa	1053.38 ± 1 kg/m3	–
293.15 K, 187.01 kPa	1053.43 ± 1 kg/m3	–
293.15 K, 476.37 kPa	1053.68 ± 1 kg/m3	–
293.15 K, 977 kPa	1054.07 ± 1 kg/m3	–
293.15 K, 1979.3 kPa	1054.81 ± 1 kg/m3	–
293.15 K, 2978.5 kPa	1055.47 ± 1 kg/m3	–
293.15 K, 3976.8 kPa	1056.08 ± 1 kg/m3	–
293.15 K, 4978.1 kPa	1056.65 ± 1 kg/m3	–
298 K, 101.33 kPa	1049.2 ± 1.2 kg/m3	–
298.1 K, 107 kPa	1048.8 ± 1.2 kg/m3	–
298.16 K, 187.01 kPa	1048.68 ± 1 kg/m3	–
298.16 K, 189.01 kPa	1048.83 ± 1 kg/m3	–
298.16 K, 480.38 kPa	1048.97 ± 1 kg/m3	–
298.16 K, 978 kPa	1049.41 ± 1 kg/m3	–
298.16 K, 1980.3 kPa	1050.16 ± 1 kg/m3	–
298.16 K, 2980.5 kPa	1050.86 ± 1 kg/m3	–
298.16 K, 3977.8 kPa	1051.48 ± 1 kg/m3	–
298.16 K, 4976.1 kPa	1052.05 ± 1 kg/m3	–
350.18 K, Closed cell (Static) method	–	1.2 ± 0.2
353.15 K, 187.01 kPa	996.384 ± 1 kg/m3	–
353.15 K, 190.01 kPa	996.734 ± 1 kg/m3	–
353.15 K, 194.01 kPa	997.077 ± 1 kg/m3	–
353.15 K, 198.02 kPa	997.127 ± 1 kg/m3	–
353.15 K, 484.38 kPa	996.824 ± 1.1 kg/m3	–
353.15 K, 492.39 kPa	997.272 ± 1.1 kg/m3	–
353.15 K, 979.01 kPa	997.655 ± 1.1 kg/m3	–
353.15 K, 984.01 kPa	997.904 ± 1 kg/m3	–
353.15 K, 985.01 kPa	997.898 ± 1.1 kg/m3	–
353.15 K, 1981.3 kPa	998.74 ± 1 kg/m3	–
353.15 K, 1987.3 kPa	998.832 ± 1 kg/m3	–
353.15 K, 1988.3 kPa	998.837 ± 1 kg/m3	–
353.15 K, 2979.5 kPa	999.633 ± 1 kg/m3	–
353.15 K, 2985.5 kPa	999.73 ± 1 kg/m3 and 999.724 ± 1 kg/m3	–
353.15 K, 3979.8 kPa	1000.43 ± 1 kg/m3	–
353.15 K, 3983.8 kPa	1000.53 ± 1 kg/m3	–
353.15 K, 3986.8 kPa	1000.53 ± 1 kg/m3	–
353.15 K, 4978.1 kPa	1001.2 ± 1 kg/m3	–
353.15 K, 4983.1 kPa	1001.29 ± 1 kg/m3	–
353.15 K, 4984.1 kPa	1001.29 ± 1 kg/m3	–
353.16 K, 188.01 kPa	997.169 ± 1 kg/m3	–
353.16 K, 489.39 kPa	997.314 ± 1 kg/m3	–
393.15 K, 180 kPa	958.067 ± 1 kg/m3	–
393.15 K, 182 kPa	958.857 ± 1 kg/m3 and 958.463 ± 1 kg/m3	–
393.15 K, 486.38 kPa	958.065 ± 1 kg/m3	–
393.15 K, 491.39 kPa	958.888 ± 1 kg/m3	–
393.15 K, 978 kPa	959.43 ± 1.1 kg/m3	–
393.15 K, 984.01 kPa	959.712 ± 1 kg/m3	–
393.15 K, 1981.3 kPa	960.847 ± 1 kg/m3	–
393.15 K, 1985.3 kPa	960.883 ± 1 kg/m3	–
393.15 K, 2980.5 kPa	961.927 ± 1 kg/m3	–
393.15 K, 2984.5 kPa	961.921 ± 1 kg/m3	–
393.15 K, 3978.8 kPa	962.917 ± 1 kg/m3	–
393.15 K, 3981.8 kPa	962.913 ± 1 kg/m3	–
393.15 K, 4977.1 kPa	963.866 ± 1 kg/m3	–
393.15 K, 4979.1 kPa	963.861 ± 1 kg/m3	–
393.16 K, 203.03 kPa	958.939 ± 1 kg/m3	–
433.14 K, 184 kPa	918.984 ± 1 kg/m3	–
433.15 K, 181 kPa	918.395 ± 1 kg/m3	–
433.15 K, 492.39 kPa	919.562 ± 1 kg/m3	–
433.15 K, 1984.3 kPa	921.775 ± 1 kg/m3	–
433.15 K, 2984.5 kPa	923.091 ± 1 kg/m3	–
433.15 K, 3983.8 kPa	924.314 ± 1 kg/m3	–
433.15 K, 4980.1 kPa	925.496 ± 1 kg/m3	–
433.16 K, 491.39 kPa	919.299 ± 1 kg/m3	–
433.16 K, 982.01 kPa	920.309 ± 1 kg/m3	–
453.14 K, 183 kPa	898.494 ± 1 kg/m3	–
453.15 K, 199.02 kPa	898.908 ± 1 kg/m3	–
453.15 K, 490.39 kPa	898.859 ± 1 kg/m3	–
453.15 K, 983.01 kPa	900.059 ± 1 kg/m3	–
453.15 K, 1982.3 kPa	901.6 ± 1 kg/m3	–
453.15 K, 2985.5 kPa	903.051 ± 1 kg/m3	–
453.15 K, 3983.8 kPa	904.412 ± 1 kg/m3	–
453.15 K, 4981.1 kPa	905.731 ± 1 kg/m3	–

Settings	refractive index
[2]	1.4316 ± 0.0012

[3]
Settings	Boiling temperature at pressure P [°C]
0.58 kPa	65.0 ± 6.3
1.14 kPa	77.5 ± 5.7
1.49 kPa	83.04 ± 3.9
1.86 kPa	87.47 ± 3
2.49 kPa	93.77 ± 2.1
4.37 kPa	106.5 ± 1.3
8.66 kPa	123.7 ± 1.1
10.61 kPa	129.4 ± 0.8
11.92 kPa	132.8 ± 0.6
16.51 kPa	142.2 ± 0.6
20.17 kPa	148.1 ± 0.5
27.32 kPa	157.78 ± 0.35
35.64 kPa	166.5 ± 0.3
43.21 kPa	173.18 ± 0.23
61.04 kPa	185.72 ± 0.2
82.18 kPa	197.04 ± 0.18
